Experimental data reported in patent US20100145469A1, “BIOCERAMIC IMPLANTS HAVING BIOACTIVE SUBSTANCE” (priority 2007, published 2010).
“Also recorded” adds a separate entry of the source.

Test system: angiogenesis
Test: Peritoneal implantation of Y-pore bioceramic implants in mice for 15 days, wound tissue and angiogenesis patterns
Conditions: for tissue response in pores: mice
[1] = DCPD implant treated with VEGF at the blind end of the closed pore

Source text: In order to produce model implants for the investigation of spatially localized release of both organic (VEGF), a Y shaped hemi-cylindrical pore channel was designed in the x-y plane of DCPD cuboids with dimensions 8 mm×8 mm×3 mm. The bioceramic endoprosthesis was made in two mirror image halves 50, 52 that keyed into one another to form a Y shaped pore 51a, 51b closed at one of the branched ends (see FIGS. 2A-2C). […] In the experiments, mouse VEGF solution was deposited at the end of the closed pore.
Wound tissue and angiogenesis patterns were examined for the implanted bioceramic endoprosthesis after peritoneal implantation of the bioceramic endoprosthesis in mice for 15 days.
For experimental analysis, VEGF-impregnated bioceramic materials were prepared by passive adsorption of 200 ng or 2 μg final amount of mouse VEGF (R&D, Cedarlane Laboratories Ltd., Canada) diluted in a 5 μl volume of Hank's balanced salt solution (HBSS). Adsorption of VEGF was performed on each half of the bioceramic endoprosthesis (see FIGS. 2A-2D) at the closed end (3) of the Y-shape pore. Specimens were air-dried under a sterile laminar flow hood. Prior to VEGF impregnation, the bioceramic materials were sterilized by soaking in 70% ethanol, followed by a HEPES-NaCl buffered solution rinse, HBSS (×3), and then air-dried. Control material specimens were also impregnated with HBSS without VEGF. Higher concentrations of VEGF (400 μg/ml) were also investigated.

vascular endothelial growth factor [VEGF]
microvessel formation (microscopic observation, FIG. 3A) [1]: microvessel formation in the tissue only in the closed pore ends
tissue in-growth (photographs, FIG. 3A) [1]: well formed vascular tissue extended from the main pore opening to closed pore end
tissue response in pores (DCPD implant, 200 ng VEGF deposited in closed pore ends, 15 days): vascular tissue throughout the pore channels; also recorded: Vascularised tissue was found inside the main open and closed pore channels
tissue response in pores (DCPD implant, 2 μg VEGF deposited in pore ends, 15 days): vascular tissue throughout the pore channels
angiogenic effect compared with untreated DCPD control (quantitative measurements) (DCPD implant, 15 days): significantly enhanced angiogenic effect
tissue response in pores (HA implants containing VEGF, 15 days): very little tissue ingrowth
vascularization pattern in pores (HA implants, 2 μg VEGF deposited in closed pore ends, 15 days implantation): mostly filled with clear connective tissue
length of pore into which blood vessels extended (factor deposited at closed pore end of model implant, peritoneal implantation 15 days, factor-free controls 2 mm): 7 mm
